Our source for the Dmax and DC50 values is patent US20260327216A1, “SUBSTITUTED OXAZOLONE COMPOUND FOR DECREASING LEVELS OF IKZF I-4 PROTEINS” (BRISTOL-MYERS SQUIBB COMPANY, priority 2023, published 2026).

The test has as its target IKZF2 Helios (Homo sapiens, UniProt Q96SW2+Q9UKS7). Nature of the test: Jurkat Cellular Degradation Assay, IKZF2. The test is classed as cell-based. Further details: endogenous in cells. The conditions noted are these: 72 h, Jurkat cells; for Dmax: Jurkat, human, 100% = complete degradation, 0% = no detectable degradation, read-out: IKZF2 Helios max % deg. observed. The method, then:
Jurkat cells were plated at 80,000 cells/well in 40 μL RPMI+10% FBS in a 384-well cell culture plate prior to using acoustic dispensing technology for adding a compound of interest. Cell cultures were incubated for 72 h at 37° C. and 5% CO2. In order to facilitate analysis, cell cultures were spun down at 200 rpm for 5 min and the supernatant was discarded. After shaking the plate to dislodge the cell pellet, cells were resuspended in 50 μL of Fixation Buffer (eBioscience FoxP3 buffer set 00-5523-00) for 60 min at room temperature. After centrifuging and discarding the supernatant, cells were permeabilized with 50 μL of Permeabilization buffer (eBioscience FoxP3 buffer set 00-5523-00) for 10 min at room temperature. Following permeabilization, cells were spun down and the supernatant was replaced with 20 μL fluorescently labelled antibodies against Helios, Ikaros and Aiolos or corresponding Isotype controls in 1× Permeabilization buffer (Ikaros-Alexa488 [Biolegend, Cat #368408, 1:50], Helios-PE [CST, Cat #29360, 1:50], Aiolos-Alexa647 [Biolegend, Cat #371106 Biolegend, 1:25]) and staining reactions were incubated for 1 h at room temperature while protected from light. Subsequently, 30 μL of 1× Permeabilization buffer was added prior to centrifuging the cells and discarding the supernatant. Stained cells were resuspended in 25 μL of flow cytometry staining buffer [PBS+0.2% bovine serum albumin (BSA)] and analyzed using an Intellicyt Ique Plus flow cytometer.
Table A-1 lists the maximum observed degradation of the IKZF1 protein, IKZF2 protein, and IKZF3 protein as measured in the Jurkat Cellular Degradation assay. The results in Table A-1 were rounded to two digits. In the Jurkat Cellular Degradation assay, a value of 100% indicated no detectable protein remaining or complete degradation of the protein; and a value of 0% indicated no detectable degradation of the protein by the test compound.

In general, DC50 refers to the concentration giving 50% degradation. A low value points to degradation at low concentration.

IKZF2 Helios, sequence (Q9UKS7 whole entry): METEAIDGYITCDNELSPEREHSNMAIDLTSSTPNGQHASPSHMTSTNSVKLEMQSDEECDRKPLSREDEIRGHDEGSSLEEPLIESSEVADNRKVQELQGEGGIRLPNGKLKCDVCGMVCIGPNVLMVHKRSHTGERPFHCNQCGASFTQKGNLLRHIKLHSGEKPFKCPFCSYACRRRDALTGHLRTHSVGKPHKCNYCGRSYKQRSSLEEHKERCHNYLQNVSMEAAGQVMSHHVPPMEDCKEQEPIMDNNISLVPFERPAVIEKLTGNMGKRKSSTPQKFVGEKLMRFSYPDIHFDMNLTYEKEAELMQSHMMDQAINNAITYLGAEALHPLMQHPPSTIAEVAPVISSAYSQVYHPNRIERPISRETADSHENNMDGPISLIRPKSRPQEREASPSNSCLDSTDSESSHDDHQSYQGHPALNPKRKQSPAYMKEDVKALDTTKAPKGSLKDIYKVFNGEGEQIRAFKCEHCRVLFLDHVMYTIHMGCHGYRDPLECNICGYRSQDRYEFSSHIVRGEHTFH
IKZF2 Helios, sequence (Q96SW2 whole entry): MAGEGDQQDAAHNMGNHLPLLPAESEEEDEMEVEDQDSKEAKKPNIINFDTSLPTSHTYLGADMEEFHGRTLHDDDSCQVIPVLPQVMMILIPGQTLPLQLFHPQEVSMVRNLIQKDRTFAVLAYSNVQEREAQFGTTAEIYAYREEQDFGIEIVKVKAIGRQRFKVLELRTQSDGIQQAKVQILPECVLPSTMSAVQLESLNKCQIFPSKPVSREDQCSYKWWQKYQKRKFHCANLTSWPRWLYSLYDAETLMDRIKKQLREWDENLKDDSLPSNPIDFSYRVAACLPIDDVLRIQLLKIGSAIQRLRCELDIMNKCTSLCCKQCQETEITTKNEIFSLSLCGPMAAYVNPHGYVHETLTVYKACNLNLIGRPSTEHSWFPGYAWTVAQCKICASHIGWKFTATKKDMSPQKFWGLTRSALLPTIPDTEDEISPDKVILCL
IKZF2 Helios, sequence (Q16531 whole entry partner): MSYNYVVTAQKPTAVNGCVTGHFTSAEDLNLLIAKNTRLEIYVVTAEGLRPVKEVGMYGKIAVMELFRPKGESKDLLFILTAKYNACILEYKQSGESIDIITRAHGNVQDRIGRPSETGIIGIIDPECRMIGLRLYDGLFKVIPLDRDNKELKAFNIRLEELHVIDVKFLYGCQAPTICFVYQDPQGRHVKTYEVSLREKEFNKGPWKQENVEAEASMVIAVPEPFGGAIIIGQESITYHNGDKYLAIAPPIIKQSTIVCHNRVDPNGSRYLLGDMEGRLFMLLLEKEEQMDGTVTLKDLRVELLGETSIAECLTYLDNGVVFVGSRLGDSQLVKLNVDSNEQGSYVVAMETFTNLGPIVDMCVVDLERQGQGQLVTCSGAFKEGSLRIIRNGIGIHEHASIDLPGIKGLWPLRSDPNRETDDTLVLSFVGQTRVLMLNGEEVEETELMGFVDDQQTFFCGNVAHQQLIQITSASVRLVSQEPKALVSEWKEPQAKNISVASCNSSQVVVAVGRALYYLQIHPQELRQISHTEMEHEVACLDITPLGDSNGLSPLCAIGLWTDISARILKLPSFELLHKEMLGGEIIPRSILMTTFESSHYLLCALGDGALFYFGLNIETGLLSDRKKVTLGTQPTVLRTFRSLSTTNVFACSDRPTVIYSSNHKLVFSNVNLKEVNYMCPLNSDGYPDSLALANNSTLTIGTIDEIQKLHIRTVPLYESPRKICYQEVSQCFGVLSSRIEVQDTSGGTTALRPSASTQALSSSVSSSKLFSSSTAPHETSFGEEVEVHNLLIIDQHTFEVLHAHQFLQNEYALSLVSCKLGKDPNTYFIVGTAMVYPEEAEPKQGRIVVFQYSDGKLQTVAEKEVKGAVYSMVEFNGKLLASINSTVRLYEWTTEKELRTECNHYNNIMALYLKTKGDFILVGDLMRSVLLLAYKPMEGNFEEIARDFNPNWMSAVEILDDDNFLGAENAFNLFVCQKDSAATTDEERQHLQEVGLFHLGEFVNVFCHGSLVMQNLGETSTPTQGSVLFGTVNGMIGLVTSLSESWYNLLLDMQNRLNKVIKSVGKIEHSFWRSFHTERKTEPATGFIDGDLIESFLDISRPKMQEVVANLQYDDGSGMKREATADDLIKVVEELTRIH

As for `O=C1CCC(n2cc(-c3ccccc3)oc2=O)C(=O)N1` (stereo not drawn) [Comparative Compound A, 3-(2-oxo-5-phenyloxazol-3(2H)-yl)piperidine-2,6-dione], the Dmax was under 30%.

For `Cc1cc(-c2ccc(-c3cn(C4CCC(=O)NC4=O)c(=O)o3)c(F)c2)nc(N)c1OC(F)F` (stereo not drawn) [Example 1, 3-(5-(4-(6-Amino-5-(difluoromethoxy)-4-methylpyridin-2-yl)-2-fluorophenyl)-2-oxooxazol-3(2H)-yl)piperidine-2,6-dione], the Dmax is over 90%. In addition, under “concentration reducing protein level by 50% vs DMSO”, the 50% degradation concentration (DC50) amounted to 17.9 nM.
